Test results reported in patent US20100267561A1, “HERBICIDAL PYRIDAZINONE DERIVATIVES” (priority 2007, published 2010).
One block for each compound: values may come before it.

Columns and labels:
kochia (Kochia scoparia) = assay: Test E pre-/postemergence plant response; format: in vivo; settings: scale 0 to 100
Method in brief: (§1)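 Plant response was judged by eye relative to controls, 0 meaning no effect and 100 complete control, after 14 to 21 days under greenhouse conditions. Compound was formulated in a non-phytotoxic solvent mixture with surfactant.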

[1] = tested on: Virginia (V.) dayflower (Commelina virginica); assay: Test E pre-/postemergence plant response; format: in vivo; settings: scale 0 to 100
Method in brief: as §1

[2] = tested on: prickly sida (Sida spinosa); assay: Test E pre-/postemergence plant response; format: in vivo; settings: scale 0 to 100
Method in brief: as §1

[3] = tested on: Russian thistle (Salsola kali); assay: Test E pre-/postemergence plant response; format: in vivo; settings: Preemergence, scale 0 to 100
Method in brief: as §1

[4] = tested on: common sowthistle (Sonchus oleraceous); assay: Test E pre-/postemergence plant response; format: in vivo; settings: scale 0 to 100
Method in brief: as §1

[5] = tested on: Canada horseweed (Conyza canadensis); assay: Test E pre-/postemergence plant response; format: in vivo; settings: Postemergence, scale 0 to 100
Method in brief: as §1

[6] = tested on: common ragweed (Ambrosia elation); assay: Test E pre-/postemergence plant response; format: in vivo; settings: scale 0 to 100
Method in brief: as §1

[7] = tested on: spanishneedles (Bidens bipinnata); assay: Test E pre-/postemergence plant response; format: in vivo; settings: scale 0 to 100
Method in brief: as §1

[8] = tested on: field bindweed (Convolvulus arvensis); assay: Test E pre-/postemergence plant response; format: in vivo; settings: scale 0 to 100
Method in brief: as §1

SMILES: Cc1cc(-c2ccc(Cl)cc2)nn1-c1c(OC(=O)C(C)C)cnn(C)c1=O [Compound 34]
Plant response rating, Kochia (kochia (Kochia scoparia); 16 g ai/ha, Preemergence): 0 | Plant response rating, Kochia (kochia (Kochia scoparia); 31 g ai/ha, Preemergence): 0 | Plant response rating, Kochia (kochia (Kochia scoparia); 62 g ai/ha, Preemergence): 0 | Plant response rating, Dayflower, V. ([1]; 16 g ai/ha, Preemergence): 0 | Plant response rating, Dayflower, V. ([1]; 31 g ai/ha, Preemergence): 0 | Plant response rating, Dayflower, V. ([1]; 62 g ai/ha, Preemergence): 0 | Plant response rating, Dayflower, V. ([1]; Postemergence, 8 g ai/ha): 0 | Plant response rating, Dayflower, V. ([1]; Postemergence, 16 g ai/ha): 0 | Plant response rating, Dayflower, V. ([1]; Postemergence, 31 g ai/ha): 0 | Plant response rating, Dayflower, V. ([1]; Postemergence, 62 g ai/ha): 0 | Plant response rating, Prickly Sida ([2]; 16 g ai/ha, Preemergence): 0 | Plant response rating, Prickly Sida ([2]; 31 g ai/ha, Preemergence): 0 | Plant response rating, Prickly Sida ([2]; 62 g ai/ha, Preemergence): 0 | Plant response rating, Prickly Sida ([2]; Postemergence, 8 g ai/ha): 0 | Plant response rating, Prickly Sida ([2]; Postemergence, 16 g ai/ha): 0 | Plant response rating, Prickly Sida ([2]; Postemergence, 31 g ai/ha): 0 | Plant response rating, Prickly Sida ([2]; Postemergence, 62 g ai/ha): 0 | Plant response rating, Thistle, Russian ([3]; 16 g ai/ha): 0 | Plant response rating, Thistle, Russian ([3]; 31 g ai/ha): 0 | Plant response rating, Thistle, Russian ([3]; 62 g ai/ha): 0 | Plant response rating, Sowthistle ([4]; 16 g ai/ha, Preemergence): 0 | Plant response rating, Sowthistle ([4]; 31 g ai/ha, Preemergence): 0 | Plant response rating, Sowthistle ([4]; 62 g ai/ha, Preemergence): 0 | Plant response rating, Sowthistle ([4]; Postemergence, 8 g ai/ha): 0 | Plant response rating, Sowthistle ([4]; Postemergence, 16 g ai/ha): 0 | Plant response rating, Sowthistle ([4]; Postemergence, 31 g ai/ha): 0 | Plant response rating, Sowthistle ([4]; Postemergence, 62 g ai/ha): 0

melting point: 202 to 204 °C
SMILES: CCc1cc(-c2ccc(C(F)(F)F)cc2)nn1-c1c(O)cnn(C)c1=O [Compound 11, 4-[5-ethyl-3-[4-(trifluoromethyl)phenyl]-1H-pyrazol-1-yl]-5-hydroxy-2-methyl-3(2H)-pyridazinone]
Plant response rating, Kochia (kochia (Kochia scoparia); 4 g ai/ha, Postemergence): 0 | Plant response rating, Kochia (kochia (Kochia scoparia); 16 g ai/ha, Preemergence): 0 | Plant response rating, Kochia (kochia (Kochia scoparia); 31 g ai/ha, Preemergence): 0 | Plant response rating, Kochia (kochia (Kochia scoparia); Postemergence, 8 g ai/ha): 0 | Plant response rating, Kochia (kochia (Kochia scoparia); Postemergence, 16 g ai/ha): 0 | Plant response rating, Kochia (kochia (Kochia scoparia); Postemergence, 31 g ai/ha): 0 | Plant response rating, Kochia (kochia (Kochia scoparia); Preemergence, 4 g ai/ha): 0 | Plant response rating, Horseweed ([5]; 4 g ai/ha): 0 | Plant response rating, Horseweed ([5]; 8 g ai/ha): 0 | Plant response rating, Horseweed ([5]; 16 g ai/ha): 0 | Plant response rating, Horseweed ([5]; 31 g ai/ha): 0 | Plant response rating, Ragweed ([6]; 4 g ai/ha, Postemergence): 0 | Plant response rating, Ragweed ([6]; 16 g ai/ha, Preemergence): 0 | Plant response rating, Ragweed ([6]; 31 g ai/ha, Preemergence): 0 | Plant response rating, Ragweed ([6]; Postemergence, 8 g ai/ha): 0 | Plant response rating, Ragweed ([6]; Postemergence, 16 g ai/ha): 0 | Plant response rating, Ragweed ([6]; Postemergence, 31 g ai/ha): 0 | Plant response rating, Ragweed ([6]; Preemergence, 4 g ai/ha): 0 | Plant response rating, Spanishneedles ([7]; 4 g ai/ha, Postemergence): 0 | Plant response rating, Spanishneedles ([7]; 16 g ai/ha, Preemergence): 0 | Plant response rating, Spanishneedles ([7]; 31 g ai/ha, Preemergence): 0 | Plant response rating, Spanishneedles ([7]; Postemergence, 8 g ai/ha): 0 | Plant response rating, Spanishneedles ([7]; Postemergence, 16 g ai/ha): 0 | Plant response rating, Spanishneedles ([7]; Postemergence, 31 g ai/ha): 0 | Plant response rating, Spanishneedles ([7]; Preemergence, 4 g ai/ha): 0 | Plant response rating, Dayflower, V. ([1]; 4 g ai/ha, Postemergence): 0 | Plant response rating, Dayflower, V. ([1]; 8 g ai/ha, Preemergence): 0 | Plant response rating, Dayflower, V. ([1]; 16 g ai/ha, Preemergence): 0 | Plant response rating, Dayflower, V. ([1]; 31 g ai/ha, Preemergence): 0 | Plant response rating, Dayflower, V. ([1]; Postemergence, 8 g ai/ha): 0 | Plant response rating, Dayflower, V. ([1]; Postemergence, 16 g ai/ha): 0 | Plant response rating, Dayflower, V. ([1]; Postemergence, 31 g ai/ha): 0 | Plant response rating, Dayflower, V. ([1]; Preemergence, 4 g ai/ha): 0 | Plant response rating, Prickly Sida ([2]; 4 g ai/ha, Postemergence): 0 | Plant response rating, Prickly Sida ([2]; 16 g ai/ha, Preemergence): 0 | Plant response rating, Prickly Sida ([2]; 31 g ai/ha, Preemergence): 0 | Plant response rating, Prickly Sida ([2]; Postemergence, 8 g ai/ha): 0 | Plant response rating, Prickly Sida ([2]; Postemergence, 16 g ai/ha): 0 | Plant response rating, Prickly Sida ([2]; Postemergence, 31 g ai/ha): 0 | Plant response rating, Prickly Sida ([2]; Preemergence, 4 g ai/ha): 0 | Plant response rating, Field Bindweed ([8]; 4 g ai/ha, Postemergence): 0 | Plant response rating, Field Bindweed ([8]; 8 g ai/ha, Preemergence): 0 | Plant response rating, Field Bindweed ([8]; 16 g ai/ha, Preemergence): 0 | Plant response rating, Field Bindweed ([8]; 31 g ai/ha, Preemergence): 0 | Plant response rating, Field Bindweed ([8]; Postemergence, 8 g ai/ha): 0 | Plant response rating, Field Bindweed ([8]; Postemergence, 16 g ai/ha): 0 | Plant response rating, Field Bindweed ([8]; Postemergence, 31 g ai/ha): 0 | Plant response rating, Field Bindweed ([8]; Preemergence, 4 g ai/ha): 0 | Plant response rating, Thistle, Russian ([3]; 31 g ai/ha): 0 | Plant response rating, Sowthistle ([4]; 4 g ai/ha, Postemergence): 0 | Plant response rating, Sowthistle ([4]; 16 g ai/ha, Preemergence): 0 | Plant response rating, Sowthistle ([4]; Postemergence, 8 g ai/ha): 0 | Plant response rating, Sowthistle ([4]; Postemergence, 16 g ai/ha): 0 | Plant response rating, Sowthistle ([4]; Postemergence, 31 g ai/ha): 0

SMILES: CCc1cc(-c2ccc(C(F)(F)F)cc2)nn1-c1c(OS(C)(=O)=O)cnn(C)c1=O [Compound 19]
Plant response rating, Kochia (kochia (Kochia scoparia); 4 g ai/ha, Postemergence): 0 | Plant response rating, Kochia (kochia (Kochia scoparia); 16 g ai/ha, Preemergence): 0 | Plant response rating, Kochia (kochia (Kochia scoparia); 31 g ai/ha, Preemergence): 0 | Plant response rating, Kochia (kochia (Kochia scoparia); Postemergence, 16 g ai/ha): 0 | Plant response rating, Kochia (kochia (Kochia scoparia); Preemergence, 4 g ai/ha): 0 | Plant response rating, Horseweed ([5]; 4 g ai/ha): 0 | Plant response rating, Horseweed ([5]; 8 g ai/ha): 0 | Plant response rating, Horseweed ([5]; 16 g ai/ha): 0 | Plant response rating, Horseweed ([5]; 31 g ai/ha): 0 | Plant response rating, Ragweed ([6]; 4 g ai/ha, Postemergence): 0 | Plant response rating, Ragweed ([6]; 16 g ai/ha, Preemergence): 0 | Plant response rating, Ragweed ([6]; 31 g ai/ha, Preemergence): 0 | Plant response rating, Ragweed ([6]; Postemergence, 8 g ai/ha): 0 | Plant response rating, Ragweed ([6]; Postemergence, 16 g ai/ha): 0 | Plant response rating, Ragweed ([6]; Postemergence, 31 g ai/ha): 0 | Plant response rating, Ragweed ([6]; Preemergence, 4 g ai/ha): 0 | Plant response rating, Spanishneedles ([7]; 4 g ai/ha, Postemergence): 0 | Plant response rating, Spanishneedles ([7]; 16 g ai/ha, Preemergence): 0 | Plant response rating, Spanishneedles ([7]; 31 g ai/ha, Preemergence): 0 | Plant response rating, Spanishneedles ([7]; Postemergence, 8 g ai/ha): 0 | Plant response rating, Spanishneedles ([7]; Postemergence, 16 g ai/ha): 0 | Plant response rating, Spanishneedles ([7]; Preemergence, 4 g ai/ha): 0 | Plant response rating, Dayflower, V. ([1]; 4 g ai/ha, Postemergence): 0 | Plant response rating, Dayflower, V. ([1]; 8 g ai/ha, Preemergence): 0 | Plant response rating, Dayflower, V. ([1]; 16 g ai/ha, Preemergence): 0 | Plant response rating, Dayflower, V. ([1]; Postemergence, 8 g ai/ha): 0 | Plant response rating, Dayflower, V. ([1]; Postemergence, 16 g ai/ha): 0 | Plant response rating, Dayflower, V. ([1]; Postemergence, 31 g ai/ha): 0 | Plant response rating, Dayflower, V. ([1]; Preemergence, 4 g ai/ha): 0 | Plant response rating, Prickly Sida ([2]; 4 g ai/ha, Postemergence): 0 | Plant response rating, Prickly Sida ([2]; 16 g ai/ha, Preemergence): 0 | Plant response rating, Prickly Sida ([2]; 31 g ai/ha, Preemergence): 0 | Plant response rating, Prickly Sida ([2]; Postemergence, 8 g ai/ha): 0 | Plant response rating, Prickly Sida ([2]; Postemergence, 16 g ai/ha): 0 | Plant response rating, Prickly Sida ([2]; Postemergence, 31 g ai/ha): 0 | Plant response rating, Prickly Sida ([2]; Preemergence, 4 g ai/ha): 0 | Plant response rating, Field Bindweed ([8]; 4 g ai/ha, Postemergence): 0 | Plant response rating, Field Bindweed ([8]; 8 g ai/ha, Preemergence): 0 | Plant response rating, Field Bindweed ([8]; 16 g ai/ha, Preemergence): 0 | Plant response rating, Field Bindweed ([8]; 31 g ai/ha, Preemergence): 0 | Plant response rating, Field Bindweed ([8]; Postemergence, 8 g ai/ha): 0 | Plant response rating, Field Bindweed ([8]; Postemergence, 16 g ai/ha): 0 | Plant response rating, Field Bindweed ([8]; Postemergence, 31 g ai/ha): 0 | Plant response rating, Field Bindweed ([8]; Preemergence, 4 g ai/ha): 0 | Plant response rating, Thistle, Russian ([3]; 31 g ai/ha): 0 | Plant response rating, Sowthistle ([4]; 4 g ai/ha, Postemergence): 0 | Plant response rating, Sowthistle ([4]; Postemergence, 8 g ai/ha): 0 | Plant response rating, Sowthistle ([4]; Postemergence, 16 g ai/ha): 0 | Plant response rating, Sowthistle ([4]; Postemergence, 31 g ai/ha): 0
